Laboratory results: patent US8232273B2, “Heterocyclic compounds and methods of use” (Genentech, Inc., priority 2008, dated 2012)

Key:
xenograft models = settings: animal studies, single agent; cited from earlier work
Bcl-2, Bcl-w and Bcl-xL = settings: cited from earlier work
Mcl-1 and A1 = settings: cited from earlier work
Bcl-2 (GST-Bcl-2) = biological target: T1, Bcl-2 (GST-Bcl-2) (Homo sapiens, UniProt P10415); assay: TR-FRET binding assay, competition with F-Bak for the Bcl-2 binding site; settings: Bcl-2, for comparison (selectivity)
T1 construct: made in house
Description: For each assay plate, a probe/antibody and protein/antibody/probe mixture were included as a negative and a positive control, respectively. Fluorescence was measured on the Envision (Perkin Elmer) using a 340/35 nm excitation filter and 520/525 (F-Bak) and 495/510 nm (Tb-labeled anti-his antibody) emission filters. Dissociation constants (Ki) were determined using Wang's equation (see, Wang, Z. X. An exact mathematical expression for describing competitive binding of two different ligands to a protein molecule. FEBS Lett. 1995 360:111-114). The TR-FRET assay can be performed in the presence of varying concentrations of human serum (HS) or fetal bovine serum (FBS). For comparison, the measurement of the competition of compounds of the invention for other Bcl-2 family protein binding sites (e.g., Bcl-2, Mcl-1) using the TR-FRET binding assay was accomplish by substituting GST-Bcl-xL in the TR-FRET assay with other GST-labeled protein, e.g., GST-Bcl-2, GST-Mcl-1, prepared in-house.

[1] = test system: NCI-H146 human small cell lung carcinoma cells; assay: Cellular viability of human tumor cell line NCI-H146 (MTS assay); assay type: cell-based; settings: 10% human serum, 48 hours of compound treatment
Description: NCI-H146 (ATCC, Manassas, Va.) human small cell lung carcinoma cells were plated 50,000 cells per well in 96-well tissue culture plates in a total volume of 100 μL tissue culture medium supplemented with 10% human serum (Invitrogen, Carlsbad, Calif.) and treated with a 2-fold serial dilution of the compounds of interest from 10 μM to […].
Each concentration was tested in duplicate at least 3 separate times. The number of viable cells following 48 hours of compound treatment was determined using the […] 96® Aqueous non-radioactive cell proliferation MTS assay according to manufacturer's recommendations (Promega Corp., Madison, Wis.).

platelets = assay: Cell viability assay for platelets (platelet rich plasma, CellTiter-Glo); assay type: cell-based; settings: approximately 4 hours at 37 C
Description: Platelet rich plasma (PRP) was incubated with a compound of the invention for approximately 4 hours at 37° C. After incubation, platelets were equilibrated to room temperature for 20 minutes and then and equal volume of CELL TITER-GLO™ reagent (Promega Corporation) was added. Samples were mixed for two minutes and then allowed to equilibrate for an additional 10 minutes at room temperature. The luminescence generated from the samples was quantitated using a LJL Analyst plate reader. Data analysis was performed using GraphPad Prism 4.0.

[2] = test system: Mcl-1-/- mouse embryonic fibroblasts (MEF); assay: Cell viability assay for Mcl-1-/- mouse embryonic fibroblasts (CellTiter-Glo); assay type: cell-based; settings: Fibroblast, in the presence of 10% Fetal Bovine Serum, read-out: MEF Mcl-1-/- KO cell viability results (EC50)
Excerpt: a. Cell Viability Assay for Mcl-1^−/− Mouse Embryonic Fibroblasts (MEF): […]
In this assay, Mcl-1^(−/−) cells were used to confirm that cell apoptosis in the presence of BH3 mimetic small molecules was due to predominantly Bcl-xL inactivation. This inactivation leaves Bax/Bak unconstrained and results in apoptosis. The […]-GLO Luminescent Cell Viability Assay is a homogeneous method of determining the number of viable cells in culture based on quantitation of the ATP present. The amount of ATP correlates with the presence of metabolically active cells such that following cell lysis the amount of ATP present is proportional to the amount of luminescence measured.
Mcl-1^(−/−) mouse embryonic fibroblasts (MEFs) are an adherent cell line prepared in house. MEFs were grown in Iwaki 75 cm^2 tissue culture flasks (cat #3123-075) with FMA media which consists of • 89% DME Kelso • 10% heat-inactivated foetal calf serum (FCS) (Hyclone cat #SH30396.03) • 1% 10 mM asparagine (Fluka cat #11149) • 275 μl of a 1:2000 dilution of 2-mercaptoethanol is added to the final 500 ml volume of FMA (Sigma cat #M7522; diluted in MT-PBS)
FMA was stored at 4° C. and used at 37° C. MEFs were cultured in FMA media and harvested in MT-PBS and trypsin. For MEF cell viability assays, cells were seeded separately in plates with 10% FCS-FMA and 1% FCS-FMA.
Assays were performed using white, flat clear-bottom Greiner 384-well tissue culture grade (Interpath #781098) plates. The compounds were made up in Matrical 384-well, 25 μl V-bottomed plates (cat #MP101-2-PP), sealed with aluminium foil from Beckman Coulter (cat #538619) and stored at 12° C. overnight. Compound preparation and titrations were performed in AnalaR grade DMSO (Merck cat #1.02952.2500). The cell viability detection assay used was […]-GLO™ which is commercially available from Promega (cat #G7572), stored at −20° C. and used at 37° C.
Compounds of the invention were prepared as 10 mM solution in 100% DMSO and stored at −20° C. Compounds were thawed to room temperature and dispensed into a 384 well Matrical plate. Standard control compounds, e.g. 32.3 mM Etoposide, were added to the plate as controls.
The media was aspirated and the Mcl-1^(−/−) cells washed with 10 mls of warmed MT-PBS. MT-PBS was aspirated and 1 ml of trypsin was added. The T75 flasks were incubated at 37° C. until the cells became detached. 4 ml of 10% FCS FMA media was added to the trypsinized cells and the entire volume was transferred to a 50 ml centrifuge tube and centrifuged for 3 minutes at 250 g. The supernatant was aspirated and the pellet resuspended in 10 ml of 10% FCS FMA. 3 ml of this cell suspension was added to a clean 75 cm^2 flask containing 17 ml of 10% FCS FMA media, thus performing a 3:10 split. The remaining cell suspension was used to perform a 1:50 split into another 75 cm^2 flask for further culturing.
Cells were harvested as per method step 1 and the pellet resuspended in 3 mls 10% FCS FMA. Cell number was determined by counting in a Neubauer haemocytometer and the dilution calculated to achieve a density of 1×10^4 cells ml^−1 (500 cells per well in 50 μl media). Separate dilutions were prepared in 50 ml 10% FCS FMA and 50 ml 1% FCS FMA solutions respectively.
Four assay plates were set up per compound plate. Two 384 well plates containing Mcl-1^(−/−) cells in 10% FCS FMA and the other two plates containing Mcl-1^(−/−) cells in 1% FCS FMA.
Using the Multidrop, 25 μl cells were dispensed aseptically into all 384 wells of the assay plates. Plates were left to rest in a non-stacked layer at room temperature for approximately 30 minutes (minimizes edge-effects) and then were placed as a single layer in the 37° C. incubator. The plates were left to incubate overnight.
The compound plates were titrated by performing a 3-fold 11-point dilution series using 100% DMSO on the MiniTrak. Following titration of the compounds, 100 nl of compounds were added to the cell plates using the Zymark Sciclone Pintool. […]

Bcl-xL (GST-Bcl-xL) = Bcl-xL (GST-Bcl-xL) (Homo sapiens, UniProt Q07817); assay: TR-FRET binding assay, competition with F-Bak for the Bcl-xL binding site; settings: values listed in the order of Table 1, read-out: TR-FRET assay results (Ki), Bcl-xL
Chain of Bcl-xL (GST-Bcl-xL) (Q07817 whole entry, species assumed): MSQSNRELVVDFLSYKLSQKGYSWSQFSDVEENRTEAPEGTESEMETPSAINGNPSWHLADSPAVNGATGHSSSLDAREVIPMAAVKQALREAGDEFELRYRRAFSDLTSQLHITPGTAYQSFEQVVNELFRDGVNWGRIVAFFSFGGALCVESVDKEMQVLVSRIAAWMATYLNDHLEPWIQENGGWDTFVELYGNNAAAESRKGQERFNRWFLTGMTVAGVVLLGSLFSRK

T1 sequence (P10415 whole entry, species assumed): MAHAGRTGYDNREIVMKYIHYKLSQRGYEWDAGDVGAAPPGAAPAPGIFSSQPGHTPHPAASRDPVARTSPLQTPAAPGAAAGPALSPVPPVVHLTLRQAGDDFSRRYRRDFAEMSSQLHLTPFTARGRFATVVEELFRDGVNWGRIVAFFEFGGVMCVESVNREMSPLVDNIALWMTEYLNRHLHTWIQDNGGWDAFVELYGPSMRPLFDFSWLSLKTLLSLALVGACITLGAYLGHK

CC1(C)CCC(c2ccc(Cl)cc2)=C(CN2CCN(c3ccc(C(=O)NS(=O)(=O)c4ccc(N[C@H](CCN5CCOCC5)CSc5ccccc5)c(S(=O)(=O)C(F)(F)F)c4)cc3)CC2)C1 [ABT-263, N-(4-(4-((2-(4-chlorophenyl)-5,5-dimethyl-1-cyclohex-1-en-1-yl)methyl)piperazin-1-yl)benzoyl)-4-(((1R)-3-(morpholin-4-yl)-1-((phenylsulfanyl)methyl)propyl)amino)-3-((trifluoromethyl)sulfonyl)benzenesulfonamide]
cytotoxic activity in certain xenograft models as single agents (xenograft models): demonstrated cytotoxic activity | binding to Bcl-2, Bcl-w and Bcl-xL (Bcl-2, Bcl-w and Bcl-xL): bind strongly | binding to Mcl-1 and A1 (Mcl-1 and A1): only weakly

CN(C)CC[C@H](CSc1ccccc1)Nc1ccc(S(=O)(=O)NC(=O)c2ccc(N3CCN(Cc4ccccc4-c4ccc(Cl)cc4)CC3)cc2)cc1[N+](=O)[O-] [ABT-737, N-(4-(4-((4′-chloro(1,1′-biphenyl)-2-yl)methyl)piperazin-1-yl)benzoyl)-4-(((1R)-3-(dimethylamino)-1-((phenylsulfanyl)methyl)propyl)amino)-3-nitrobenzenesulfonamide]
cytotoxic activity in certain xenograft models as single agents (xenograft models): demonstrated cytotoxic activity | binding to Bcl-2, Bcl-w and Bcl-xL (Bcl-2, Bcl-w and Bcl-xL): bind strongly | binding to Mcl-1 and A1 (Mcl-1 and A1): only weakly

CN(C)CC#Cc1ccc(OCCCc2sc(N3CCc4cccc(C(=O)Nc5nc6ccccc6s5)c4C3)nc2C(=O)O)cc1 [Example 74, 2-[8-(Benzothiazol-2-ylcarbamoyl)-3,4-dihydro-1H-isoquinolin-2-yl]-5-{3-[4-(3-dimethylamino-prop-1-ynyl)-phenoxy]-propyl}-thiazole-4-carboxylic acid]
Ki (Bcl-2 (GST-Bcl-2)): 60 nM | EC50 [1]: 710 nM | EC50 (platelets): 21 nM | EC50 [2]: 7 nM | Ki (Bcl-xL (GST-Bcl-xL)): 0.05 nM

CN1CCN(CCCNc2ncnc3c2cnn3-c2ccc(OCCCc3sc(N4CCc5cccc(C(=O)Nc6nc7ccccc7s6)c5C4)nc3C(=O)O)cc2)CC1 [Example 84, 2-(8-(benzo[d]thiazol-2-ylcarbamoyl)-3,4-dihydroisoquinolin-2(1H)-yl)-5-(3-(4-(4-(3-(4-methylpiperazin-1-yl)propylamino)-1H-pyrazolo[3,4-d]pyrimidin-1-yl)phenoxy)propyl)thiazole-4-carboxylic acid]
Ki (Bcl-2 (GST-Bcl-2)): 140 nM | EC50 [1]: 610 nM | EC50 [2]: 22 nM | Ki (Bcl-xL (GST-Bcl-xL)): 0.05 nM

CN(C)CC#Cc1ccc(OCCCc2ccc(N3CCc4cccc(C(=O)Nc5nc6ccccc6s5)c4C3)nc2C(=O)O)c(F)c1 [Example 97, 6-(8-(benzo[d]thiazol-2-ylcarbamoyl)-3,4-dihydroisoquinolin-2(1H)-yl)-3-(3-(4-(3-(dimethylamino)prop-1-ynyl)-2-fluorophenoxy)propyl)picolinic acid]
Ki (Bcl-2 (GST-Bcl-2)): 272 nM | EC50 [1]: 2400 nM | EC50 (platelets): 3 nM | EC50 [2]: 26 nM | Ki (Bcl-xL (GST-Bcl-xL)): 0.05 nM
